Here are results for 19 compounds from patent US20240059703A1 (AMGEN INC., priority 2021, published 2024).

The IC50 is the concentration that gives 50% inhibition.

One test concerns the target KRAS G12C (Homo sapiens (Human), UniProt P01116, C118A/G12C). Kind of test: 2 h coupled exchange assay. Type of test: biochemical. Particulars: Avg 2 h Coupled exchange IC50, 2 h compound pre-incubation. How it is done:
The term “2 h coupled exchange assay” or “20 h coupled exchange assay” as used herein refers to the assay described in the Section entitled “BIOLOGICAL EVALUATION.”

For test [1], the system named is MIA PaCa-2 (human pancreatic carcinoma) cells. Kind of test: Cell Viability Assay (CellTiter-Glo), MIA PaCa-2. Type of test: cell-based. Particulars: Homo sapiens, MIA PaCa-2, 72 h. The procedure: Serially-diluted compound or DMSO was added to the cells, and plates were incubated at 37° C., 5% CO2 for 72 h. Cell viability was measured using a CellTiter-Glo® Luminescent Cell Viability Assay kit (Promega) according to the manufacturer's protocol. The luminescence signal of treated samples was normalized to DMSO control, and data were analyzed using a 4-parameter logistic model to calculate IC50 values.

Test [2] deals with A549 (human lung carcinoma) cells. Kind of test: Cell Viability Assay (CellTiter-Glo), A549. The format is cell-based. The following applies: Homo sapiens, A549, 72 h. Summed up:
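After a 72 h exposure to serial compound dilutions at 37° C, luminescent ATP content was measured with CellTiter-Glo. The cells were A549 or MIA PaCa-2, seeded at 1.67E+04 cells/mL in RPMI 1640 with 10% serum. Signals were normalized to DMSO controls and IC50 fitted with a 4-parameter logistic model.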

The structures appear in SMILES notation.

Chain of KRAS G12C (P01116 other isoform, or with tags, fused parts or gaps G12C/C118A): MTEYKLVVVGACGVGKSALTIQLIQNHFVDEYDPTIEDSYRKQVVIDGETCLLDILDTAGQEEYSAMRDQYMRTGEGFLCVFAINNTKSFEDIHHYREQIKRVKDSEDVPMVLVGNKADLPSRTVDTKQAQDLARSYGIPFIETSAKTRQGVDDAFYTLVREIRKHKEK

In the case of `C=CC(=O)N1CC2(C1)CN(c1nc3cc(OC)ccc3c(-c3c(C)ccc4[nH]ncc34)c1C#N)CC2(F)F` [Example 14-20, 2-(8,8-difluoro-2-(2-propenoyl)-2,6-diazaspiro[3.4]octan-6-yl)-7-methoxy-4-(5-methyl-1H-indazol-4-yl)-3-quinolinecarbonitrile], the values for the IC50 (against KRAS G12C; in test [1]; in test [2]) were 31 nM, 2550 nM and more than 5000 nM, respectively.
For `C=CC(=O)N1CC2(CCN(c3nc4cc(OC)ccc4c(-c4c(C)ccc5[nH]ncc45)c3C#N)C2C)C1` [Example 14-21, 7-methoxy-4-(5-methyl-1H-indazol-4-yl)-2-((5R)-5-methyl-2-(2-propenoyl)-2,6-diazaspiro[3.4]octan-6-yl)-3-quinolinecarbonitrile|7-methoxy-4-(5-methyl-1H-indazol-4-yl)-2-((5S)-5-methyl-2-(2-propenoyl)-2,6-diazaspiro[3.4]octan-6-yl)-3-quinolinecarbonitrile] the same measures were 111 nM, 447 nM and more than 5000 nM.
Consider `C=CC(=O)N1CC2(CCN(c3nc4c(c(-c5c(C)ccc6[nH]ncc56)c3C)COC(C)(C)C4)C2)C1` [Example 14-23, 1-(6-(3,7,7-trimethyl-4-(5-methyl-1H-indazol-4-yl)-7,8-dihydro-5H-pyrano[4,3-b]pyridin-2-yl)-2,6-diazaspiro[3.4]octan-2-yl)-2-propen-1-one], for which the IC50 on KRAS G12C is 102 nM; in test [1], 18 nM; in test [2], more than 5000 nM.
For `C=CC(=O)N1CC2(CCN(c3nc4c(c(-c5cccc6cn[nH]c56)c3C#N)C[C@H]3C[C@@H]4C3(C)C)C2)C1` [Example 14-25, (1R,9R)-6-(1H-indazol-7-yl)-10,10-dimethyl-4-(2-(2-propenoyl)-2,6-diazaspiro[3.4]octan-6-yl)-3-azatricyclo[7.1.1.0^2,7]undeca-2,4,6-triene-5-carbonitrile] the same measures were 110 nM, 669 nM and more than 5000 nM.
The corresponding values for `C=CC(=O)N1CC2(CCN(c3nc4c(c(-c5cc(O)cc6ccccc56)c3C)COC(C)(C)C4)C2)C1` [Example 14-26, 1-(6-(4-(3-hydroxy-1-naphthalenyl)-3,7,7-trimethyl-7,8-dihydro-5H-pyrano[4,3-b]pyridin-2-yl)-2,6-diazaspiro[3.4]octan-2-yl)-2-propen-1-one] are 67 nM, 76 nM and more than 5000 nM.
Take `C=CC(=O)N1CC2(CCN(c3nc4c(c(-c5c(C)c(C)cc6cnn(C)c56)c3C)COC(C)(C)C4)C2)C1` [Example 14-40, 1-(6-(3,7,7-trimethyl-4-(1,5,6-trimethyl-1H-indazol-7-yl)-7,8-dihydro-5H-pyrano[4,3-b]pyridin-2-yl)-2,6-diazaspiro[3.4]octan-2-yl)-2-propen-1-one]: the IC50 on KRAS G12C was 110 nM; in test [1], 502 nM; in test [2], more than 5000 nM.
The corresponding values for `C=CC(=O)N1CC2(CCN(c3nc4c(c(-c5cccc6cc(O)ccc56)c3C)COC(C)(C)C4)C2)C1` [Example 14-43, 1-(6-(4-(6-hydroxy-1-naphthalenyl)-3,7,7-trimethyl-7,8-dihydro-5H-pyrano[4,3-b]pyridin-2-yl)-2,6-diazaspiro[3.4]octan-2-yl)-2-propen-1-one] are 110 nM, 136 nM and more than 5000 nM.
For the compound `C=CC(=O)N1CC2(CCN(c3nc4cc(-c5c(C)nn(C)c5C)ccc4c(-c4ccccc4Cl)c3C#N)C2)C1` [Example 14-46, 4-(2-chlorophenyl)-2-(2-(2-propenoyl)-2,6-diazaspiro[3.4]octan-6-yl)-7-(1,3,5-trimethyl-1H-pyrazol-4-yl)-3-quinolinecarbonitrile], the values for the IC50 (against KRAS G12C; in test [1]; in test [2]) were 113 nM, 459 nM and 2380 nM, respectively.
`C=CC(=O)N1CC2(CCN(c3nc4c(OC)cccc4c(-c4c(C)ccc5[nH]ncc45)c3C#N)C2)C1` [Example 14-47, 8-methoxy-4-(5-methyl-1H-indazol-4-yl)-2-(2-(2-propenoyl)-2,6-diazaspiro[3.4]octan-6-yl)-3-quinolinecarbonitrile]: the IC50 at KRAS G12C is 482 nM; in test [1] it was more than 5000 nM; in test [2], more than 5000 nM.
Turning to `C=CC(=O)N1CC2(CCN(c3nc4c(c(-c5c(C)ccc6cn[nH]c56)c3C#N)C[C@H]3C[C@@H]4C3(C)C)C2)C1` [Example 14-48, (1R,9R)-10,10-dimethyl-6-(6-methyl-1H-indazol-7-yl)-4-(2-(2-propenoyl)-2,6-diazaspiro[3.4]octan-6-yl)-3-azatricyclo[7.1.1.0^2,7]undeca-2,4,6-triene-5-carbonitrile], the IC50 against KRAS G12C is 61 nM; in test [1] it was 53 nM; in test [2] it was more than 5000 nM.
For `C=CC(=O)N1CC2(CCN(c3nc4c(c(-c5cc(O)ccc5C)c3F)C[C@H]3C[C@@H]4C3(C)C)C2)C1` [Example 14-50, 1-(6-((1R,9R)-5-fluoro-6-(5-hydroxy-2-methylphenyl)-10,10-dimethyl-3-azatricyclo[7.1.1.0^2,7]undeca-2,4,6-trien-4-yl)-2,6-diazaspiro[3.4]octan-2-yl)-2-propen-1-one] the same measures were 65 nM, 1610 nM and more than 5000 nM.
Turning to `C=CC(=O)N1CC2(CCN(c3nc4c(c(-c5ccc(F)c6sc(N)nc56)c3C#N)COC(C)(C)C4)C2)C1` [Example 14-56, 4-(2-amino-7-fluoro-1,3-benzothiazol-4-yl)-7,7-dimethyl-2-(2-(2-propenoyl)-2,6-diazaspiro[3.4]octan-6-yl)-7,8-dihydro-5H-pyrano[4,3-b]pyridine-3-carbonitrile], the IC50 is 93 nM against KRAS G12C, 135 nM in test [1] and more than 5000 nM in test [2].
For `C=CC(=O)N1CC2(CCN(c3nc4c(c(-c5cc(O)cc6ccccc56)c3F)COC(C)(C)C4)C2)C1` [Example 14-68, 1-(6-(3-fluoro-4-(3-hydroxy-1-naphthalenyl)-7,7-dimethyl-7,8-dihydro-5H-pyrano[4,3-b]pyridin-2-yl)-2,6-diazaspiro[3.4]octan-2-yl)-2-propen-1-one] the same measures were 50 nM, 91 nM and more than 5000 nM.
The corresponding values for `C=CC(=O)N1CC2(CCN(c3nc4c(c(-c5c(C)ccc6[nH]ncc56)c3F)C[C@H]3C[C@@H]4C3(C)C)C2)C1` [Example 14-72, 1-(6-((1R,9R)-5-fluoro-10,10-dimethyl-6-(5-methyl-1H-indazol-4-yl)-3-azatricyclo[7.1.1.0^2,7]undeca-2,4,6-trien-4-yl)-2,6-diazaspiro[3.4]octan-2-yl)-2-propen-1-one] are 30 nM, 24 nM and more than 5000 nM.
The corresponding values for `C=CC(=O)N1CC2(CCN(c3nc4c(c(-c5c(C)ccc6cn[nH]c56)c3C#N)COC(C)(C)C4)C2)C1` [Example 14-80, 7,7-dimethyl-4-(6-methyl-1H-indazol-7-yl)-2-(2-(2-propenoyl)-2,6-diazaspiro[3.4]octan-6-yl)-7,8-dihydro-5H-pyrano[4,3-b]pyridine-3-carbonitrile] are 89 nM, 1190 nM and more than 5000 nM.
For `C=CC(=O)N1CC2(CCN(c3nc4c(c(-c5cc(O)c(F)cc5Cl)c3C#N)C[C@H]3C[C@@H]4C3(C)C)C2)C1` [Example 14-84, (1R,9R)-6-(2-chloro-4-fluoro-5-hydroxyphenyl)-10,10-dimethyl-4-(2-(2-propenoyl)-2,6-diazaspiro[3.4]octan-6-yl)-3-azatricyclo[7.1.1.0^2,7]undeca-2,4,6-triene-5-carbonitrile], the IC50 is 144 nM at KRAS G12C, 2150 nM in test [1] and more than 5000 nM in test [2].
In the case of `C=CC(=O)N1CC2(CCN(c3nc4c(c(-c5cc(O)ccc5C(F)(F)F)c3C#N)COC(C)(C)C4)C2)C1` [Example 14-86, 4-(5-hydroxy-2-(trifluoromethyl)phenyl)-7,7-dimethyl-2-(2-(2-propenoyl)-2,6-diazaspiro[3.4]octan-6-yl)-7,8-dihydro-5H-pyrano[4,3-b]pyridine-3-carbonitrile], the figures for the IC50 (on KRAS G12C; in test [1]; in test [2]) were 108 nM, 418 nM and more than 5000 nM, respectively.
On to `C=CC(=O)N1CC2(CCN(c3nc4c(c(-c5c(C)c(Cl)cc6cnn(C)c56)c3C)COC(C)(C)C4)C2)C1` [Example 14-87, 1-(6-(4-(5-chloro-1,6-dimethyl-1H-indazol-7-yl)-3,7,7-trimethyl-7,8-dihydro-5H-pyrano[4,3-b]pyridin-2-yl)-2,6-diazaspiro[3.4]octan-2-yl)-2-propen-1-one], for which the 50% inhibitory concentration (IC50) on KRAS G12C was 39 nM; in test [1] it was 68 nM; in test [2], more than 5000 nM.
In the case of `C=CC(=O)N1CC2(CCN(c3nc4c(c(-c5c(C)c(Cl)cc6cn[nH]c56)c3C#N)COC(C)(C)C4)C2)C1` [Example 14-91, 4-(5-chloro-6-methyl-1H-indazol-7-yl)-7,7-dimethyl-2-(2-(2-propenoyl)-2,6-diazaspiro[3.4]octan-6-yl)-7,8-dihydro-5H-pyrano[4,3-b]pyridine-3-carbonitrile], the IC50 against KRAS G12C was 16 nM; in test [1], 20 nM; in test [2], more than 5000 nM.
